Measurements taken from US9409908B2 (priority 2012, dated 2016).
Structures can show the parent of a compound that is named as a salt.

Experiments:
[1] = molecular target: purified human Factor XIa (Homo sapiens (Human), UniProt P03951); test: biochemical; format: biochemical; conditions: read-out: Factor XIa Ki
[2] = molecular target: purified human plasma kallikrein (Homo sapiens (Human), UniProt P03952); test: biochemical; format: biochemical; conditions: read-out: Plasma Kallikrein Ki
Chain of purified human plasma kallikrein (P03952 whole entry, looked up): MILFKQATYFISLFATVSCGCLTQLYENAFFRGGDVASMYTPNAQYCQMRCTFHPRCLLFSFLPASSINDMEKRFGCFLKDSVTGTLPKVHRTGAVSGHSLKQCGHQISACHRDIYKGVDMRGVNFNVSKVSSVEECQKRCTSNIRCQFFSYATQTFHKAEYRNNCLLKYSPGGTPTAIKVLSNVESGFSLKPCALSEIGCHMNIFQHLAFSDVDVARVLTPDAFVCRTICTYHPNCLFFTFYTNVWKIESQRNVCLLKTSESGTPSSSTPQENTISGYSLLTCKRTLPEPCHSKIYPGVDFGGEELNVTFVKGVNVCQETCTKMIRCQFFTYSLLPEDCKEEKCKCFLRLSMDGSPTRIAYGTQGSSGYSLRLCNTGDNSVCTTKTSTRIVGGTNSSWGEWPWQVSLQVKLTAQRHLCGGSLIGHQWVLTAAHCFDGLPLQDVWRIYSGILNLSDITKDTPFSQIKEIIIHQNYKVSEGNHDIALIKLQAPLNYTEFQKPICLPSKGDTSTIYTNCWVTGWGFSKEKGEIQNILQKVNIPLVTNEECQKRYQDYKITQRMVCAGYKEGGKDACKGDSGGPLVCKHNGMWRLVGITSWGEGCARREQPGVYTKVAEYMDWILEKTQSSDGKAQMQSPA
Chain of purified human plasma kallikrein (P03952 whole entry partner, looked up): as the sequence (P03952 whole entry, looked up) above

Chain of purified human Factor XIa (P03951 whole entry, looked up): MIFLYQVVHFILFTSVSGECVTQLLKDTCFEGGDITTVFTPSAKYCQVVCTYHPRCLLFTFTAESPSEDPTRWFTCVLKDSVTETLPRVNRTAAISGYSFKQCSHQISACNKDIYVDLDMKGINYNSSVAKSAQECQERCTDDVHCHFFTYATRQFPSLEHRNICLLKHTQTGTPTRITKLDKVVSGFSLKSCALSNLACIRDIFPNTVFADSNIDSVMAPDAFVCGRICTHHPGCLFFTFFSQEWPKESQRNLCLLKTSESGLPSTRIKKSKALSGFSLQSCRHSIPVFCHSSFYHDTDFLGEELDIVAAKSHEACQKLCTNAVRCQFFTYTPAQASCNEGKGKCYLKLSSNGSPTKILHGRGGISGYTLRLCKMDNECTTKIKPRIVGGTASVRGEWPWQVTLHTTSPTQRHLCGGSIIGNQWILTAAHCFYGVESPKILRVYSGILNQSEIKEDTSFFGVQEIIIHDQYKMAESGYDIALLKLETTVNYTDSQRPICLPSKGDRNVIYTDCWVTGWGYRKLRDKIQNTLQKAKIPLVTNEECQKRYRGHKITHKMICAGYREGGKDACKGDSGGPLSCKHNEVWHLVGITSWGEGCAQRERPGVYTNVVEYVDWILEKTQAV
Chain of purified human Factor XIa (P03951 whole entry partner, looked up): as the sequence (P03951 whole entry, looked up) above

COC(=O)Nc1ccc2c(c1)NC(=O)[C@H](C)CCC[C@H](N1CCC(c3cncc(Cl)c3)=CC1=O)c1cc-2ccn1 [Example 99, Methyl N-[(10R,14S)-14-[4-(5-chloropyridin-3-yl)-6-oxo-1,2,3,6-tetrahydropyridin-1-yl]-10-methyl-9-oxo-8,16-diazatricyclo[13.3.1.0^2,7]nonadeca-1(19),2,4,6,15,17-hexaen-5-yl]carbamate, his TFA salt] showed a Ki [1] of 126 nM and a Ki [2] of 2400 nM.

CC1CCC[C@H](N2CCC(c3c(F)ccc(Cl)c3F)=CC2=O)c2cc(ccn2)-c2ccc(C(=O)O)cc2NC1=O (stereo partly drawn) [Example 105, (14S)-14-[4-(3-Chloro-2,6-difluorophenyl)-6-oxo-1,2,3,6-tetrahydropyridin-1-yl]-10-methyl-9-oxo-8,16-diazatricyclo[13.3.1.0^2,7]nonadeca-1(18),2,4,6,15(19),16-hexaene-5-carboxylic acid, TFA salt] gave a Ki [1] greater than 342 nM and a Ki [2] of 3920 nM.

CC1CCC[C@H](N2CCC(c3c(C(F)(F)F)ccc(Cl)c3F)=CC2=O)c2cc(ccn2)-c2ccc(C(=O)O)cc2NC1=O (stereo partly drawn) [Example 106, (14S)-14-{4-[3-Chloro-2-fluoro-6-(trifluoromethyl)phenyl]-6-oxo-1,2,3,6-tetrahydropyridin-1-yl}-10-methyl-9-oxo-8,16-diazatricyclo[13.3.1.0^2,7]nonadeca-1(18),2,4,6,15(19),16-hexaene-5-carboxylic acid, TFA salt] showed a Ki [1] greater than 342 nM and a Ki [2] of 890 nM.

For CC1CCC[C@H](N2CCC(c3c(F)ccc(Cl)c3F)=CC2=O)c2cc(ccn2)-c2ccc(C(N)=O)cc2NC1=O (stereo partly drawn) [Example 107, (14S)-14-[4-(3-Chloro-2,6-difluorophenyl)-6-oxo-1,2,3,6-tetrahydropyridin-1-yl]-10-methyl-9-oxo-8,16-diazatricyclo[13.3.1.0^2,7]nonadeca-1(18),2,4,6,15(19),16-hexaene-5-carboxamide, TFA salt], the Ki [1] was 17.4 nM and the Ki [2] was 88 nM.

In the case of CC1CCC[C@H](N2CCC(c3c(C(F)(F)F)ccc(Cl)c3F)=CC2=O)c2cc(ccn2)-c2ccc(C(N)=O)cc2NC1=O (stereo partly drawn) [Example 108, (14S)-14-{4-[3-Chloro-2-fluoro-6-(trifluoromethyl)phenyl]-6-oxo-1,2,3,6-tetrahydropyridin-1-yl}-10-methyl-9-oxo-8,16-diazatricyclo[13.3.1.0^2,7]nonadeca-1(18),2,4,6,15(19),16-hexaene-5-carboxamide, TFA salt], the Ki [1] is reported as 8.13 nM and the Ki [2] is reported as 29 nM.

Compound COC(=O)Nc1ccc2c(c1)NC(=O)[C@H](C)CCC[C@H](N1CCC(c3cc(Cl)ccc3C)=CC1=O)c1cc-2ccn1 [Example 110, Methyl N-[(10R,14S)-14-[4-(5-chloro-2-methylphenyl)-6-oxo-1,2,3,6-tetrahydropyridin-1-yl]-10-methyl-9-oxo-8,16-diazatricyclo[13.3.1.0^2,7]nonadeca-1(18),2,4,6,15(19),16-hexaen-5-yl]carbamate] has a Ki [1] of 0.62 nM and a Ki [2] of 3.91 nM.

COC(=O)Nc1ccc2c(c1)NC(=O)[C@H](C)CCC[C@H](N1CCC(c3c(F)ccc(C)c3F)=CC1=O)c1cc-2ccn1 [Example 111, Methyl N-[(10R,14S)-14-[4-(2,6-difluoro-3-methylphenyl)-6-oxo-1,2,3,6-tetrahydropyridin-1-yl]-10-methyl-9-oxo-8,16-diazatricyclo[13.3.1.0^2,7]nonadeca-1(18),2,4,6,15(19),16-hexaen-5-yl]carbamate] gave a Ki [1] of 1.42 nM and a Ki [2] of 3.25 nM.

For COC(=O)Nc1ccc2c(c1)NC(=O)[C@H](C)CCC[C@H](N1CCC(c3cc(C)ccc3F)=CC1=O)c1cc-2ccn1 [Example 113, Methyl N-[(10R,14S)-14-[4-(2-fluoro-5-methylphenyl)-6-oxo-1,2,3,6-tetrahydropyridin-1-yl]-10-methyl-9-oxo-8,16-diazatricyclo[13.3.1.0^2,7]nonadeca-1(18),2,4,6,15(19),16-hexaen-5-yl]carbamate], the Ki [1] was 7.24 nM and the Ki [2] was 15.6 nM.

COC(=O)Nc1ccc2c(c1)NC(=O)[C@H](C)CCC[C@H](N1CCC(c3cccc(C)c3C)=CC1=O)c1cc-2ccn1 [Example 114, Methyl-N-[(10R,14S)-14-[4-(2,3-dimethylphenyl)-6-oxo-1,2,3,6-tetrahydropyridin-1-yl]-10-methyl-9-oxo-8,16-diazatricyclo[13.3.1.0^2,7]nonadeca-1(18),2,4,6,15(19),16-hexaen-5-yl]carbamate] was tested, and the Ki [1] was 108 nM and the Ki [2] was 143 nM.

With COC(=O)Nc1ccc2c(c1)NC(=O)[C@H](C)CCC[C@H](N1CCC(c3ccccc3OC)=CC1=O)c1cc-2ccn1 [Example 116, Methyl N-[(10R,14S)-14-[4-(2-methoxyphenyl)-6-oxo-1,2,3,6-tetrahydropyridin-1-yl]-10-methyl-9-oxo-8,16-diazatricyclo[13.3.1.0^2,7]nonadeca-1(18),2,4,6,15(19),16-hexaen-5-yl]carbamate] the Ki [1] was 267 nM and the Ki [2] was 739 nM.

With COC(=O)Nc1ccc2c(c1)NC(=O)[C@H](C)CCC[C@H](N1CCC(c3ccc(OC)cc3)=CC1=O)c1cc-2ccn1 [Example 117, Methyl N-[(10R,14S)-14-[4-(4-methoxyphenyl)-6-oxo-1,2,3,6-tetrahydropyridin-1-yl]-10-methyl-9-oxo-8,16-diazatricyclo[13.3.1.0^2,7]nonadeca-1(18),2,4,6,15(19),16-hexaen-5-yl]carbamate] the Ki [1] was greater than 398 nM and the Ki [2] was greater than 13000 nM.

COC(=O)Nc1ccc2c(c1)NC(=O)[C@H](C)CCC[C@H](N1CCC(c3cccc(Cl)c3OC)=CC1=O)c1cc-2ccn1 [Example 118, Methyl N-[(10R,14S)-14-[4-(3-chloro-2-methoxyphenyl)-6-oxo-1,2,3,6-tetrahydropyridin-1-yl]-10-methyl-9-oxo-8,16-diazatricyclo[13.3.1.0^2,7]nonadeca-1(18),2,4,6,15(19),16-hexaen-5-yl]carbamate] was tested, and the Ki [1] was greater than 404 nM and the Ki [2] was 2030 nM.

Compound COC(=O)Nc1ccc2c(c1)NC(=O)C(C)(O)CCC[C@H](N1CCC(c3c(F)ccc(Cl)c3F)=CC1=O)c1cc-2ccn1 (stereo partly drawn) [Example 123, Methyl N-[(14S)-14-[4-(3-chloro-2,6-difluorophenyl)-6-oxo-1,2,3,6-tetrahydropyridin-1-yl]-10-hydroxy-10-methyl-9-oxo-8,16-diazatricyclo[13.3.1.0^2,7]nonadeca-1(19),2,4,6,15,17-hexaen-5-yl]carbamate, TFA salt] has a Ki [1] of 20.1 nM and a Ki [2] of 26.1 nM.

C[C@@H]1CCC[C@H](N2CCC(c3c(F)ccc(Cl)c3F)=CC2=O)c2cc(ccn2)-c2ccc(NC3O[C@H](CO)[C@@H](O)[C@H](O)[C@@H]3O)cc2NC1=O (stereo partly drawn) [Example 125, (10R,14S)-14-[4-(3-chloro-2,6-difluorophenyl)-6-oxo-1,2,3,6-tetrahydropyridin-1-yl]-10-methyl-5-{[(3S,4S,5S,6R)-3,4,5-trihydroxy-6-(hydroxymethyl)oxan-2-yl]amino}-8,16-diazatricyclo[13.3.1.0^2,7]nonadeca-1(19),2,4,6,15,17-hexaen-9-one] gave a Ki [1] of 15.2 nM and a Ki [2] of 11.6 nM.

For C[C@@H]1CCC[C@H](N2CCC(c3c(F)ccc(Cl)c3F)=CC2=O)c2cc(ccn2)-c2ccc(NC3O[C@H](CO)[C@@H](O)[C@H](O)[C@H]3O)cc2NC1=O (stereo partly drawn) [Example 126, (10R,14S)-14-[4-(3-chloro-2,6-difluorophenyl)-6-oxo-1,2,3,6-tetrahydropyridin-1-yl]-10-methyl-5-{[(3R,4S,5S,6R)-3,4,5-trihydroxy-6-(hydroxymethyl)oxan-2-yl]amino}-8,16-diazatricyclo[13.3.1.0^2,7]nonadeca-1(19),2,4,6,15,17-hexaen-9-one], the Ki [1] was 16.1 nM and the Ki [2] was 37.6 nM.

Compound C[C@@H]1CCC[C@H](N2CCC(c3c(F)ccc(Cl)c3F)=CC2=O)c2cc(ccn2)-c2ccc(NC3O[C@H](C(=O)O)[C@@H](O)[C@H](O)[C@H]3O)cc2NC1=O (stereo partly drawn) [Example 128, (2S,3S,4S,5R)-6-{[(10R,14S)-14-[4-(3-chloro-2,6-difluorophenyl)-6-oxo-1,2,3,6-tetrahydropyridin-1-yl]-10-methyl-9-oxo-8,16-diazatricyclo[13.3.1.0^2,7]nonadeca-1(19),2,4,6,15,17-hexaen-5-yl]amino}-3,4,5-trihydroxyoxane-2-carboxylic acid] has a Ki [1] of 10.3 nM and a Ki [2] of 25.5 nM.

For CO[C@H]1[C@H](O)[C@@H](CO)OC(Nc2ccc3c(c2)NC(=O)[C@H](C)CCC[C@H](N2CCC(c4c(F)ccc(Cl)c4F)=CC2=O)c2cc-3ccn2)[C@@H]1O (stereo partly drawn) [Example 129, (10R,14S)-14-[4-(3-chloro-2,6-difluorophenyl)-6-oxo-1,2,3,6-tetrahydropyridin-1-yl]-5-{[(3R,4S,5R,6R)-3,5-dihydroxy-6-(hydroxymethyl)-4-methoxyoxan-2-yl]amino}-10-methyl-8,16-diazatricyclo[13.3.1.0^2,7]nonadeca-1(19),2,4,6,15,17-hexaen-9-one], the Ki [1] was 8.29 nM and the Ki [2] was 21.7 nM.

In the case of CC(=O)N[C@@H]1C(Nc2ccc3c(c2)NC(=O)[C@H](C)CCC[C@H](N2CCC(c4c(F)ccc(Cl)c4F)=CC2=O)c2cc-3ccn2)O[C@H](CO)[C@@H](O)[C@@H]1O (stereo partly drawn) [Example 130, N-[(3S,4R,5S,6R)-2-{[(10R,14S)-14-[4-(3-chloro-2,6-difluorophenyl)-6-oxo-1,2,3,6-tetrahydropyridin-1-yl]-10-methyl-9-oxo-8,16-diazatricyclo[13.3.1.0^2,7]nonadeca-1(19),2,4,6,15,17-hexaen-5-yl]amino}-4,5-dihydroxy-6-(hydroxymethyl)oxan-3-yl]acetamide], the Ki [1] is reported as 8.51 nM and the Ki [2] is reported as 26.5 nM.

In the case of C[C@@H]1CCC[C@H](N2CCC(c3c(F)ccc(Cl)c3F)=CC2=O)c2cc(ccn2)-c2ccc(NC3O[C@@H](CO)[C@H](O)[C@@H](O)[C@@H]3O)cc2NC1=O (some centres unmarked) [Example 131], the Ki [1] is reported as 7.22 nM and the Ki [2] is reported as 20.8 nM.
